Assay results reported in patent US20230117205A1, “B7-H4 ANTIBODY-DRUG CONJUGATES FOR THE TREATMENT OF CANCER” (SEAGEN INC., priority 2021, published 2023).

Tests used:
[1] = target: T1, recombinant human B7-H4 protein (Homo sapiens, UniProt Q7Z7D3); assay: BLI binding to recombinant human B7-H4 (monovalent and bivalent formats); conditions: mAb compared with ADC
T1 construct: B7-H4 extracellular domain Phe29-Ala258 with a C-terminal 10-His tag
T1 sequence (Q7Z7D3 29-258): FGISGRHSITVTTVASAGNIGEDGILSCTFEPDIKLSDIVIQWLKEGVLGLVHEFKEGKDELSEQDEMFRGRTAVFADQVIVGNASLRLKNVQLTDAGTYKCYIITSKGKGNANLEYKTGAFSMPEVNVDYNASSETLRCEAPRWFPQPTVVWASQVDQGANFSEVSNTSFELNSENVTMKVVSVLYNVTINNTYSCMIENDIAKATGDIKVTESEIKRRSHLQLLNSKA

OVCAR3 xenograft model = assay: OVCAR3 xenograft, Study OVCAR3-e314; type: in vivo, SCID mice; conditions: 3 mg/kg, three weekly doses, i.v.
Description: Tumor volume was measured twice weekly until study day 60.
Female SCID mice were implanted with OVCAR3 tumor fragments (˜1 mm^3) subcutaneously at Charles River Discovery Services (NC). Once tumor volumes reached 150-200 mm^3, mice were dosed with 3 mg/kg of ADC every seven days for three total doses (q7dx3). Tumor volumes were measured twice weekly, and animals were euthanized when tumor volume reached 1000 mm^3. Stock concentrations of ADC were diluted to a desired concentration (with PBS) and injected i.v. into each treatment group.
Tumor growth inhibition (TGI) for each treatment group compared to the untreated group was analyzed on study day 26 as follows: % TGI=[1−(([…])/MTVuntreated)]*100, where MTV is the mean tumor volume. Statistical significance was determined using the Mann-Whitney U test (two-tailed).

[2] = tested on: MDA-MB-468 tumor and PBMC co-cultures; assay: Tumor/PBMC co-culture assay; type: cell-based, human; conditions: tumor/immune cell co-cultures
Description: Tumor cells were transfected with Incucyte® Cytolight red lentivirus per manufacturer's instructions and stable polyclonal cell populations expressing mKate2 (red fluorescent protein, RFP) were generated under puromycin selection. Live-cell killing assays were performed by seeding RFP+ MDA-MB-468 tumor cells in 96-well flat bottom plates (Corning #3603) at a variety of densities (3,750-10,000 cells/well) and grown overnight. The following day, PBMCs isolated from healthy donors were added at 15:1 or 25:1 effector to target (E:T) ratios and cultures were treated with the indicated small molecule drugs or ADCs. To evaluate immune cell activation, supernatants were harvested between 120 and 144 hours post treatment and MIP-1β production was evaluated by Milliplex MAP Human cytokine/chemokine/growth factor panel A (12-plex) Immunology Multiple Assay (Millipore Sigma #HCYTA-60K-12C). […] Following the final wash, cell pellets were resuspended in 200 μL staining buffer and analyzed on an NXT Attune flow cytometer (ThermoFisher). Flow cytometry data were analyzed using FlowJo software and monocyte activation was quantified by measuring the MFI of CD86 staining on CD14+ monocytes within the RFP−/live/CD19−/CD3−/CD14+ gate.

[3] = tested on: MDA-MB-468 xenograft tumors; assay: RNAseq of treated MDA-MB-468 xenograft tumors; type: in vivo, NSG mice; conditions: single 3 mg/kg dose; compared to vehicle control
Description: Specifically, female NSG mice were implanted with 1×10^6 MDA-MB-468 cells in 25% Matrigel H C subcutaneously. Once tumor volumes reached ˜250-300 mm^3, mice were randomized into treatment groups of 6 mice each and treated with a single 3 mg/kg dose of ADC or mAb, or vehicle control (20 mM Histidine buffer, pH 6.0) injected intraperitoneally (i.p.). Stock concentrations of ADC were diluted to desired concentration with 20 mM Histidine buffer, pH 6.0 or and stock concentration of mAb were diluted to desired concentration with 0.01% Tween20 in PBS. Twenty-four hours prior to dosing, each animal was treated with 10 mg/kg hIVIG. One week following treatment, tumors were harvested, cut in half, and processed for RNAseq (frozen at −80° C.) or formalin-fixed and paraffin-embedded for immunohistochemical (IHC) analysis.
For RNAseq, RNA was extracted from tumors and library preparation for […] sequencing was performed using PolyA selection. RNA was sequenced using the Illumina HiSeq platform 2×150 bp configuration. […] Adaptors were trimmed using cutadapt version 1.16, reads were aligned to a composite (GRCh38(h38)/GRCm38(mm10)) genome using STAR version 2.5.2. Transcripts and genes were quantitated via RSEM version 1.2.31. Quantitative and statistical differences were determined between groups of samples using DESeq2 version 1.28.1. […]

**Q.** Which “binding affinities for hB7-H4” value [1] does the source give for “SGN-B7H4V: ADC of fully human IgG1 anti-B7-H4 mAb conjugated to monomethyl auristatin E (MMAE) via a protease-cleavable valine-citrulline linker (vedotin)” here?
**A.** similar

**Q.** And the “mean tumor volume compared to the untreated group” value (OVCAR3 xenograft model)?
**A.** reduction in mean tumor volume

**Q.** What about the “Tumor growth inhibition (TGI)” value (OVCAR3 xenograft model; study day 26, compared to untreated) of the same substance?
**A.** 48%

**Q.** And the “CD86 on CD14+ monocytes” value [2]?
**A.** upregulation of the costimulatory molecule CD86

**Q.** And the “release of MIP-1β/CCL4” value [2]?
**A.** led to the release of the chemoattractant MIP-1β/CCL4

**Q.** What about the “upregulation of human transcripts encoding cytokines (CXCL10 and CXCL1)” value [3] of the same substance?
**A.** 2-3 fold
